The results in this text go back to PMC6309430 (Journal of pharmaceutical sciences, 2017).

Test [1] has as its target T1, P-glycoprotein (Pgp; Abcb1a, MDR3) (Mus musculus, UniProt P21447). Put plainly: intrinsic protein. Format: binding.
The target in test [2] is T1, P-glycoprotein (Pgp; Abcb1a, MDR3). As to the kind of experiment: intrinsic protein. Format: binding. This is another data set of the same source.

Where two headings read alike, the source gives them in different places.

T1 sequence (P21447 whole entry): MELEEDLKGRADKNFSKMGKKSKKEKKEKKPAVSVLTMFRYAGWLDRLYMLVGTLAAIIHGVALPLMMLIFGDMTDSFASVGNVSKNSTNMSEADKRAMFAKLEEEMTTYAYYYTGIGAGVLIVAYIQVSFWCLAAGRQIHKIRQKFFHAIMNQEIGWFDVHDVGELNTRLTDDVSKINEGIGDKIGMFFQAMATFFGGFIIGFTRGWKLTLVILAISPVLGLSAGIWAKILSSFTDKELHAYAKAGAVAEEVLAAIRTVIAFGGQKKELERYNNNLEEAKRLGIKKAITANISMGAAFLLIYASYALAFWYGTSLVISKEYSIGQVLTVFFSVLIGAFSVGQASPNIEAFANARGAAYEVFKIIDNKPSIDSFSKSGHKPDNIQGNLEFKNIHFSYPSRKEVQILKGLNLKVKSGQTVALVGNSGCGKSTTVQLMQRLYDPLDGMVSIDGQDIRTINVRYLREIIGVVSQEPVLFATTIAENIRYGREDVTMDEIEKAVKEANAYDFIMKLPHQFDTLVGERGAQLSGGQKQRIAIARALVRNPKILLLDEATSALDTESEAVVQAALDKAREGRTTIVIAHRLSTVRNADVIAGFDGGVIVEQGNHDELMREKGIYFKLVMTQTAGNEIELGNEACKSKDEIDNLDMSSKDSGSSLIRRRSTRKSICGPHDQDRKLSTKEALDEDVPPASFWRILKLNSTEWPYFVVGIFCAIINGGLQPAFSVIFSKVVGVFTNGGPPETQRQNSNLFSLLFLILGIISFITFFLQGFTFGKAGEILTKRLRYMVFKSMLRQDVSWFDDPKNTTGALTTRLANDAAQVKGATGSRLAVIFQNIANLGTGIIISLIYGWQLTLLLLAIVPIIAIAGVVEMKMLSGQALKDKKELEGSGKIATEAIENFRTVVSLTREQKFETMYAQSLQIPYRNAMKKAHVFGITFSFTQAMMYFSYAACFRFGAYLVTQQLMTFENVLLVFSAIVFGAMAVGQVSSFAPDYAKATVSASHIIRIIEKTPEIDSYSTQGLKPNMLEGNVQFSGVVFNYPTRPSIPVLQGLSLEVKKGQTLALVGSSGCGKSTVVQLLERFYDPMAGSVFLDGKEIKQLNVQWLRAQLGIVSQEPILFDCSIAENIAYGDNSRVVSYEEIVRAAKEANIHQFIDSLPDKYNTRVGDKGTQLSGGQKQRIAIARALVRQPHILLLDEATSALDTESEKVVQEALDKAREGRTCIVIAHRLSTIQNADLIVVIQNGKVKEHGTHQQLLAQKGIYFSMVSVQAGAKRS

As a reminder, the Kd is the free concentration of one partner at which half of the binding sites on the other are occupied at equilibrium, for simple one-to-one binding. Regarding `CN1CCC[C@@H]1Cc1c[nH]c2ccc(CCS(=O)(=O)c3ccccc3)cc12` [ETT, eletriptan], the Kd in test [1] worked out at 115 ± 10 µM.

The compound `CNS(=O)(=O)Cc1ccc2[nH]cc(CCN(C)C)c2c1` [STT, sumatriptan] yielded a Kd in test [2] of 92.6 ± 25 µM.
